In US20240158442A1, “MULTIFUNCTIONAL POLYPEPTIDE AND APPLICATION THEREOF IN FIELD OF MEDICINES” (Wuhan Innerse Pharmaceutical Inc., priority 2021, published 2024):
Square brackets hold non-standard residues; d marks the D form. Ends that are not written are not given here. βAla = NCCC(=O)O

Legend:
[1] = system: rats with cerebral ischemia (middle cerebral artery occlusion, MCAO); test: MCAO rat model of cerebral ischemia, TTC staining, cerebral infarct volume (Example 5); assay type: in vivo, SD rats; settings: for infarct volume (TTC quantification), mean value: 3 mg/kg via tail vein 1-2 h after suturation, TTC after 22-24 h, 6 rats per group; for infarct volume (TTC quantification), rat No. 1: individual animal No. 1; for infarct volume (TTC quantification), rat No. 2: individual animal No. 2; for infarct volume (TTC quantification), rat No. 3: individual animal No. 3; for infarct volume (TTC quantification), rat No. 4: individual animal No. 4; for infarct volume (TTC quantification), rat No. 5: individual animal No. 5; for infarct volume (TTC quantification), rat No. 6: individual animal No. 6
Description: (§1) In order to determine the application of the synthetic peptides provided by the present invention in neurological diseases, the present invention uses SD rats as experimental objects, and performs middle cerebral artery occlusion method (MCAO) to prepare rat model of cerebral ischemia. These rats were injected drugs intravenously 1-2 hours after ischemia, and a behavioral observation and scoring was conducted for each animal after 22-24 hours. After the behavioral observation, the experimental rats were euthanized and their brains were removed, cut to sections and stained with TTC for quantitative analysis, and the cerebral infarct volume % was calculated.
• Small-animal monitor: VT200 from Rongxianda Technology Co., Ltd., Shenzhen, China. • SD rats: 180-200 g, from China National Institutes for Food and Drug Identification. • Suture emboli: Maiyue Bio (M8507). • TTC staining solution: Yuanye Bio (R24053).
(§2) The experimental SD rat was weighed and anesthetized with chloral hydrate. After anesthesia, the limbs of the rat were fixed, and the rat was placed in a supine position, connected to the small-animal monitor, and monitored for important physiological parameters such as body temperature, blood pressure and heart rate, etc. The rat's neck was shaved and disinfected with 75% alcohol cotton ball. A middle incision of about 2 cm length was then made on the neck of the experimental rat, and the submandibular gland of the rat was bluntly separated while avoiding damage to the gland. Then, the left common carotid artery (CCA) of the experimental rat was bluntly separated, and the internal carotid artery (ICA) and external carotid artery (ECA) were carefully separated upward along the CCA. Any damage to vagus nerves was avoided during the separation. The CCA and ICA were clamped respectively with two artery clamps, and the distal end of the ECA was cut off and a silicone suture emboli was inserted into the ECA “port” to the ICA artery clamp, then the artery clamp was quickly loosened and the tip of the suture emboli was put in through the artery clamp quickly before clamping the ICA again. This step was repeated and the suture emboli was put in further until the black mark of the suture emboli reached the bifurcation of the ECA and ICA, and the tip of the suture emboli blocked the middle cerebral artery and then the ECA “port” and the suture emboli was tied tightly using a thread in order to prevent the “escape” of suture emboli or bleeding after the rat waked up. The artery clamps on the CCA and ICA were then loosed and removed to restore the tissue to its original position, and an appropriate amount of penicillin was applied to prevent wound infection. A medical suture needle with thread was used to suture, and the wound was disinfected using povidone-iodine again after the suturation. The experimental rats were monitored with the small-animal monitor to evaluate if their physiological parameters were normal, and the rats were placed on a small-animal electric blanket to keep their body temperature until they waked up, and placed in animal cages.
(§3) The drug to be tested was prepared as 3 mg/mL solution. The drug was dosed via tail vein 1-2 h after the suturation.
(§4) During the drug administration, the rat was fastened with a fastening device, and the drug to be tested was injected into the tail vein of the rat at 3 mg/kg using 1 mL syringe, the drug was injected slowly to reduce the cardiopulmonary load of the experimental rat.
(§5) The animals were divided into different test groups, with 6 rats for each group. Model group: After the suturation, an equal amount of normal saline was given via tail vein; Drug groups S1 (NA1), S4 (β-Ala-His-Lys-Ala-Pro) and S5 (Pro-Ala-Lys-β-Ala-His): administered via tail vein after the suturation;
After the behavioral observation, experimental rats were euthanized and their brains were removed. […]

[2] = system: rats with cerebral ischemia (middle cerebral artery occlusion, MCAO); test: MCAO rat model of cerebral ischemia, behavioral observation and scoring (Example 5); assay type: in vivo, SD rats; settings: 3 mg/kg via tail vein; for behavioral score, rat No. 1: individual animal No. 1; for behavioral score, rat No. 2: individual animal No. 2; for behavioral score, rat No. 3: individual animal No. 3; for behavioral score, rat No. 4: individual animal No. 4; for behavioral score, rat No. 5: individual animal No. 5; for behavioral score, rat No. 6: individual animal No. 6; for behavioral score, mean value: scored 22-24 h after suturation, scale 0-5, 6 rats per group
Description: as §1, §2, §3, §4, §5
The behavioral observation and scoring were performed on each animal 22-24h after the suturation.

[3] = system: rat cerebral ischemic stroke (MCAO, reperfusion 120 min after ischemia); test: Dose-effect experiment, suture-embolized MCAO ischemia-reperfusion model, TTC staining, cerebral infarction size (Example 6); assay type: in vivo, Sprague-Dawley (SD) rats; settings: for Infarct size (infarct tissue weight as percentage of whole brain weight): model control 24.84 ± 3.39
Description: Preparation method: an amount of test substance was weighted and fully dissolved using water for injection to the required concentration, and was filtered with a 0.22 μm filter to sterilize.
Animal strain: Sprague-Dawley (SD) rats; grade: SPF grade. Body weight: 200.01-240.03 g when the accommodation started, 213.79-278.79 g when grouping. Age: about 5-7 weeks old during the accommodation, and 6-8 weeks old when grouping. Source: SPF (Beijing) Biotechnology Co., Ltd., Beijing, China.
A. Isolating and exposing blood vessels: the skin of the surgical area was shaved, and the rat was placed under a surgical microscope. The skin of the rat was cut along the midline with ophthalmic scissors, with a cut of about 2 cm length. Through the right neck of the rat, the muscle tissue of the right neck was bluntly isolated and opened with a microforcep to expose the right common carotid artery (CCA), and then isolated upward along the common carotid artery to further expose the external carotid artery (ECA) and internal carotid artery (ICA);
B. The ECA was ligated and the ICA was temporarily clamped; the proximal end and distal end of CCA were threaded separately, the distal end was tied tightly and the proximal end was tied with a loose knot, and a small incision was made between the two threads;
Inserting the suture emboli: A No. 4-0 suture emboli was inserted through the incision of CCA, pushed slowly and gently into the internal carotid artery, and stopped at the artery clamp of ICA, the pre-set thread was tied tightly (to avoid severe bleeding when pushing the suture emboli), then the artery clamp that blocked the blood flow of ICA was removed, and the suture emboli was immediately pushed into ICA until entering into the cranium. […]
D. Fixing the suture emboli and suturing the incision: if one felt slight resistance when the suture emboli was inserted about 18 mm depth from the bifurcation of the common carotid artery, it means that the tip of the suture emboli has entered into the cerebral anterior artery (ACA), and the side wall of the suture emboli has blocked the opening of the middle cerebral artery; at the moment, the insertion was terminated and the time was recorded. […]

[4] = system: rat cerebral ischemic stroke (MCAO, reperfusion 120 min after ischemia); test: Dose-effect experiment, MCAO ischemia-reperfusion model, rat neurological function score (NSS); assay type: in vivo, Sprague-Dawley (SD) rats; settings: 3 mg/kg i.v., D 2 = 1 day after surgery, model control 8.62 ± 0.84
Description: The establishment of rat model: the rats were placed in an anesthesia induction box filled with 3.0% isoflurane for anesthesia induction. Anesthesia-induced animals were transferred to the operating table, and anesthesia was maintained with 2.0%˜2.5% isoflurane at 200 mL/min using a small-animal gas anesthesia machine, and the eyelid reflex and pain response of the rats were observed. The surgery can be started only after the eyelid reflex response and the pain response on limbs and tail disappeared. […]
• Measurement time: 24 hours before and after modeling; • Animals measured: all the surviving experimental animals planned to be measured; • Measurement method: a motor function test, sensory test, balance test, and reflex and abnormal behavior test were performed on animals, according to the rat neurological function score scale (NSS) for details.
The main purpose of clinical treatment for cerebral infarction is to restore the patient's neurological function as much as possible and to improve the quality of life after stroke. In this experiment, the animals were evaluated with Bederson scoring 1 hour after ischemia to evaluate the ischemia in animals. One day after modeling, the neurobehavioral function of animals was evaluated with NSS scoring scale in order to evaluate the effect of test substance in improving the neurological function of animals.

[5] = system: experimental cerebral ischemia-reperfusion in animals (cynomolgus monkeys); settings: preclinical ischemic stroke model; cited from earlier work
[6] = system: patients with acute ischemic stroke (AIS) undergoing endovascular thrombectomy; settings: intravenous injection 2.6 mg/kg; cited from earlier work
[7] = Dose-effect experiment, body weight of MCAO model animals; settings: 3 mg/kg i.v.; D 2 = 1 day after surgery
Description: Measurement time: the body weight was measured at least twice during the accommodation, and each batch of rats were weighed once on the day before the surgery and on the day of dissection to calculate the amount of drug administered and the anesthetic applied; the body weight was measured twice a week after the surgery.
The effect of test substance on the weight of model animals: cerebral ischemia-reperfusion is an acute injury model, wherein the weight of experimental animals will drop dramatically after MCAO modeling. Thus, the weight of experimental animals is one of the most basic sensitive parameters to comprehensively reflect the health status of animals.

[8] = listed as β-Ala-His-Lys-Ala-Pro
[9] = 3 mg/kg i.v. once within 10 min after reperfusion, TTC 24 h after treatment

Substance | infarct volume (TTC quantification), mean value [1] | infarct volume (TTC quantification), rat No. 1 ([1]; 3 mg/kg via tail vein) | infarct volume (TTC quantification), rat No. 2 ([1]; 3 mg/kg via tail vein) | infarct volume (TTC quantification), rat No. 3 ([1]; 3 mg/kg via tail vein) | infarct volume (TTC quantification), rat No. 4 ([1]; 3 mg/kg via tail vein) | infarct volume (TTC quantification), rat No. 5 ([1]; 3 mg/kg via tail vein) | infarct volume (TTC quantification), rat No. 6 ([1]; 3 mg/kg via tail vein) | behavioral score, rat No. 1 [2] | behavioral score, rat No. 2 [2] | behavioral score, rat No. 3 [2] | behavioral score, rat No. 4 [2] | behavioral score, rat No. 5 [2] | behavioral score, rat No. 6 [2] | behavioral score, mean value [2] | further results
β-Ala-His-Lys-Ala-Pro ([βAla]HKAP) [Example S4] | 0.155 | 0.233 | 0.157 | 0.137 | 0.171 | 0.118 | 0.116 | 3 points | 2 points | 3 points | 2 points | 1 points | 1 points | 2.0 points | infarct volume (TTC quantification), mean value [1, 8]: 0.155±0.044; infarct volume, statistical comparison with S1 ([1]; 3 mg/kg via tail vein, compared with S1 (NA1) 3 mg/kg): not statistically different from S1; behavioral score, statistical comparison with S1 ([2]; compared with S1 (NA1) 3 mg/kg): not statistically different from S1; behavioral score, mean value [2, 8]: 2.0±0.9 points
YGRKKRRQRRRKLSSIESDV [Example S1, nerinetide] | 0.157 | 0.187 | 0.218 | 0.153 | 0.145 | 0.107 | 0.134 | 2 points | 2 points | 2 points | 2 points | 1 points | 3 points | 2.0 points | infarct volume (TTC quantification), mean value ([1]; listed as NA1): 0.157±0.040; behavioral score, mean value ([2]; listed as NA1): 2.0±0.6 points; Infarct weight [3, 9]: 0.24 ± 0.02 g; Infarct size (infarct tissue weight as percentage of whole brain weight) [3, 9]: 16.74±3.14%; Infarct size (infarct tissue weight as percentage of whole brain weight) ([3]; 3 mg/kg i.v. once within 10 min after reperfusion, TTC 24 h after treatment, listed as Positive drug): 16.74 ± 3.14 %; Inhibition rate of cerebral infarction ([3]; 3 mg/kg i.v., calculated from infarct size versus model control group): 33%; NSS score D 2 ([4]; listed as Positive drug): 8.00 ± 0.76; NSS score D 2 ([4]; listed as positive control): 8.00±0.76; functional prognosis [5]: improve the functional prognosis; infarct size of experimental cerebral ischemia-reperfusion [5]: reduce the infarct size; patient's prognosis [6]: improved patient's prognosis; Weight D 2 [7]: 203.7 ± 10.94 g
